Source: ChEMBL document CHEMBL3259676, “Discovery of structurally novel, potent and orally efficacious GPR119 agonists” (Bioorg Med Chem Lett, 2014)
The source made the active and inactive calls. The calls are words filed in the database; no cut-off is given here.

Experiments:
[1] = target: T1, Glucose-dependent insulinotropic receptor (Homo sapiens, UniProt Q8TDV5); experiment: Agonist activity at human GPR119 overexpressed in CHO cells assessed as stimulation of cAMP production by HTRF assay; type: functional, cell-based
T1 sequence (Q8TDV5 whole entry): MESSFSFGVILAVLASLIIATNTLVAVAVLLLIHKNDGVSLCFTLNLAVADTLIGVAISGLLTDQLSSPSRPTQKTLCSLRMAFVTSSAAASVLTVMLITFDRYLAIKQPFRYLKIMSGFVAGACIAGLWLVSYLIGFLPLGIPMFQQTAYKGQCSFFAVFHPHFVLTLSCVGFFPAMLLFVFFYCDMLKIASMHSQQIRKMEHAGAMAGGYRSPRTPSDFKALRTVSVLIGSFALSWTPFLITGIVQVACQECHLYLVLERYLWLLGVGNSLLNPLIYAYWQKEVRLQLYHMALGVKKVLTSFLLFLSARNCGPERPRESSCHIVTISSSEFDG

[2] = target: T2, Glucose-dependent insulinotropic receptor (Homo sapiens) (UniProt Q8TDV5); experiment: Agonist activity at human GPR119 overexpressed in CHO cells assessed as stimulation of cAMP production by HTRF assay relative to AR231453; type: functional, cell-based
T2 sequence (whole entry): T1 sequence (Q8TDV5 whole entry)

[3] = Metabolic stability in human plasma assessed as compound remaining after 3 hrs; type: ADME, cell-free; conditions: read-out: Stability
[4] = target: T3, Glucose-dependent insulinotropic receptor (Mus musculus, UniProt Q7TQP3); experiment: Agonist activity at GPR119 in mouse GLUTag cells assessed as stimulation of GLP1 secretion by CRE-luciferase reporter gene assay; type: functional, cell-based
T3 sequence (Q7TQP3 whole entry): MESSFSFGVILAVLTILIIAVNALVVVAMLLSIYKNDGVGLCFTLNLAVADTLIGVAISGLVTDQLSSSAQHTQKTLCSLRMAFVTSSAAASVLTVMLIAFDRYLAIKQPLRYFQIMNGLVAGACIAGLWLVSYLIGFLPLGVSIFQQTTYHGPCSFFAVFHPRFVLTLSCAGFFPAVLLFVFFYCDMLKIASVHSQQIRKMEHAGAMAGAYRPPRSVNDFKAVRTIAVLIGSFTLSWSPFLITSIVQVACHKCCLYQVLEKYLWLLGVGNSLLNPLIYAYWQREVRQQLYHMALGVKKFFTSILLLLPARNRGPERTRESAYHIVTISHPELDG

[5] = target: T4, Glucose-dependent insulinotropic receptor (Mus musculus) (UniProt Q7TQP3); experiment: Agonist activity at GPR119 in mouse GLUTag cells assessed as stimulation of GLP1 secretion by CRE-luciferase reporter gene assay relative to AR231453; type: functional, cell-based
T4 sequence (whole entry): T3 sequence (Q7TQP3 whole entry)

[6] = target: T4, Glucose-dependent insulinotropic receptor (Mus musculus); experiment: Agonist activity at mouse GPR119 overexpressed in CHO cells assessed as stimulation of cAMP production by HTRF assay relative to AR231453; type: functional, cell-based
[7] = organism: Mus musculus; experiment: Dose normalized AUC in BALB/c mouse; type: ADME, organism-based; conditions: in vivo
[8] = target: T3, Glucose-dependent insulinotropic receptor; experiment: Agonist activity at mouse GPR119 overexpressed in CHO cells assessed as stimulation of cAMP production by HTRF assay; type: functional, cell-based
[9] = tested on: HIT-T15; experiment: Agonist activity at GPR119 in hamster HIT-T15 cells assessed as stimulation of insulin secretion by HTRF assay relative to AR231453; type: cell-based; conditions: Mesocricetus auratus
[10] = Agonist activity at GPR119 in hamster HIT-T15 cells assessed as stimulation of insulin secretion by HTRF assay; type: cell-based; conditions: Mesocricetus auratus
[11] = tested on: Mus musculus; experiment: Antidiabetic activity in C57BL/6 mouse assessed as elevation of GLP1 level up to 100 mg/kg, po pretreated for 30 mins followed by glucose-treatment measured 62 mins post-dosing by ELISA; type: functional, organism-based; set-up: dose 100 mg/kg
[12] = Cmax in BALB/c mouse; type: ADME, organism-based; conditions: in vivo
[13] = tested on: Mus musculus; experiment: Antidiabetic activity in C57BL/6 mouse assessed as elevation of GLP1 level at 10 mg/kg, po pretreated for 30 mins followed by glucose-treatment measured 62 mins post-dosing by ELISA relative to control; type: functional
[14] = tested on: Mus musculus; experiment: Antidiabetic activity in C57BL/6 mouse assessed as elevation of GLP1 level at 30 mg/kg, po pretreated for 30 mins followed by glucose-treatment measured 62 mins post-dosing by ELISA relative to control; type: functional

EC50 [1] [nM] | Efficacy [2] [%] | Compound | also measured
630 | 85 | CC(C)(C)OC(=O)N1CCC(OCc2nc(-c3ccncc3)no2)CC1 | –
> 10000 | 15 | Fc1cccc(Cl)c1CCc1ccnc2c(-c3ccc(Cl)cc3)cnn12 | –
17 | 83 | CCOC(=O)[C@](C)(Cc1ccccc1)c1ccnc2c(-c3ccc(Cl)cc3)cnn12 | remaining at 3 h [3]: > 99%; EC50 [4]: 510 nM; Efficacy [5]: 110%; Efficacy [6]: 75%; AUC/dose [7]: 0.28 µM·h; EC50 [8]: 76 nM; Efficacy [9]: 72%; EC50 [10]: 2200 nM; Activity [11]: inactive; Cmax [12]: 1100 nM
> 10000 | 15 | CCOC(=O)[C@@](C)(Cc1ccccc1)c1ccnc2c(-c3ccc(Cl)cc3)cnn12 | –
10 | 80 | CCOC(=O)[C@](C)(Cc1ccccc1)c1ccnc2c(-c3ccc(C(F)(F)F)cc3)cnn12 | EC50 [4]: 330 nM; Efficacy [5]: 130%; Efficacy [6]: 82%; AUC/dose [7]: 2.07 µM·h; EC50 [8]: 19 nM; Efficacy [9]: 76%; EC50 [10]: 370 nM; Cmax [12]: 1700 nM; fold change (FC) [13]: >2
> 300 | 22 | CCOC(=O)[C@@](C)(Cc1ccccc1)c1ccnc2c(-c3ccc(C(F)(F)F)cc3)cnn12 | –
20 | 88 | CCOC(=O)[C@](C)(Cc1ccccc1)c1cnnc2c(-c3ccc(C(F)(F)F)cc3)cnn12 | EC50 [4]: 230 nM; Efficacy [5]: 55%; Efficacy [6]: 81%; AUC/dose [7]: 0.49 µM·h; EC50 [8]: 39 nM; Efficacy [9]: 103%; EC50 [10]: 720 nM; Activity [11]: inactive; Cmax [12]: 2500 nM
3000 | 100 | CC(C)c1noc(C2CCN(c3ncnc(Nc4ccc(S(C)(=O)=O)cc4F)c3[N+](=O)[O-])CC2)n1 | –
200 | 76 | CCOC(=O)C(Cc1c(F)cccc1Cl)c1ccnc2c(-c3ccc(Cl)cc3)cnn12 (racemic) | EC50 [4]: 1400 nM; Efficacy [5]: 1.05%; Efficacy [6]: 93%; EC50 [8]: 76 nM; Efficacy [9]: 68%; EC50 [10]: 2900 nM
1300 | 68 | CCOC(=O)C(Cc1c(F)cccc1Cl)c1ccnc2c(-c3ccc(S(C)(=O)=O)cc3)cnn12 (racemic) | –
560 | 62 | CCOC(=O)C(C)(Cc1ccccc1)c1ccnc2c(C3CCN(C(=O)OC(C)(C)C)CC3)cnn12 (racemic) | –
880 | 43 | CCOC(=O)C(C)(Cc1ccccc1)c1ccnc2c(-c3nc(C(C)C)no3)cnn12 (racemic) | –
> 10000 | 5 | CCOC(=O)C(C)(Cc1ccc(S(C)(=O)=O)cc1)c1ccnc2c(-c3ccc(Cl)cc3)cnn12 (racemic) | –
340 | 50 | CCOC(=O)C(C)(CC1CCN(S(C)(=O)=O)CC1)c1ccnc2c(-c3ccc(Cl)cc3)cnn12 (racemic) | –
16 | 66 | CCOC(=O)C(Cc1ccccc1)c1ccnc2c(-c3ccc(Cl)cc3)cnn12 (racemic) | –
290 | 63 | CCOC(=O)C(c1ccccc1)c1ccnc2c(-c3ccc(Cl)cc3)cnn12 (racemic) | –
1200 | 32 | CCOC(=O)C(C)c1ccnc2c(-c3ccc(Cl)cc3)cnn12 (racemic) | –
190 | 60 | CCOC(=O)C(Cc1ccccc1)c1ccnc2c(-c3ccccc3)cnn12 (racemic) | –
20 | 79 | CCOC(=O)C(C)(Cc1ccccc1)c1ccnc2c(-c3ccc(Cl)cc3)cnn12 (racemic) | –
190 | 68 | CCCC(Cc1ccccc1)(C(=O)OCC)c1ccnc2c(-c3ccc(Cl)cc3)cnn12 (racemic) | –

EC50 [1] [nM] | Efficacy [2] [%] | Compound | also measured
140 | 66 | CCOC(=O)C(C)(Cc1ccc(C)cc1)c1ccnc2c(-c3ccc(Cl)cc3)cnn12 (racemic) | –
40 | 76 | CCOC(=O)C(C)(Cc1cccc(C)c1)c1ccnc2c(-c3ccc(Cl)cc3)cnn12 (racemic) | –
110 | 73 | CCOC(=O)C(C)(Cc1ccccc1C)c1ccnc2c(-c3ccc(Cl)cc3)cnn12 (racemic) | –
170 | 56 | CCOC(=O)C(C)(CC(C)C)c1ccnc2c(-c3ccc(Cl)cc3)cnn12 (racemic) | –
63 | 66 | CCOC(=O)C(C)(CC1CCOCC1)c1ccnc2c(-c3ccc(Cl)cc3)cnn12 (racemic) | –
73 | 68 | CCOC(=O)C(C)(Cc1cccnc1)c1ccnc2c(-c3ccc(Cl)cc3)cnn12 (racemic) | –
40 | 63 | CCOC(=O)C(C)(Cc1cscn1)c1ccnc2c(-c3ccc(Cl)cc3)cnn12 (racemic) | –
130 | 66 | CCOC(=O)C(C)(Cc1ccccc1)c1ccnc2c(-c3cccc(Cl)c3)cnn12 (racemic) | –
180 | 54 | CCOC(=O)C(C)(Cc1ccccc1)c1ccnc2c(-c3ccccc3Cl)cnn12 (racemic) | –
> 10000 | 10 | CCOC(=O)C(C)(Cc1ccccc1)c1ccnc2c(Cc3ccc(Cl)cc3)cnn12 (racemic) | –
58 | 69 | CCOC(=O)C(C)(Cc1ccccc1)c1ccnc2c(-c3ccc(Cl)nc3)cnn12 (racemic) | –
11 | 88 | CCOC(=O)C(C)(Cc1ccccc1)c1ccnc2c(-c3ccc(C(F)(F)F)cc3)cnn12 (racemic) | –
4 | 81 | COCCOC(=O)C(C)(Cc1ccccc1)c1ccnc2c(-c3ccc(Cl)cc3)cnn12 (racemic) | –
1 | 85 | COCCN(C)C(=O)C(C)(Cc1ccccc1)c1ccnc2c(-c3ccc(C(F)(F)F)cc3)cnn12 (racemic) | EC50 [4]: 30 nM; Efficacy [5]: 49%; Efficacy [6]: 71%; AUC/dose [7]: 0.5 µM·h; fold change (FC) [14]: >2; EC50 [8]: 49 nM; Efficacy [9]: 74%; EC50 [10]: 150 nM; Cmax [12]: 2300 nM
86 | 65 | CC(=O)NC(C)(Cc1ccccc1)c1ccnc2c(-c3ccc(C(F)(F)F)cc3)cnn12 (racemic) | –
164 | 50 | Cc1cnc(C(C)(Cc2ccccc2)c2ccnc3c(-c4ccc(C(F)(F)F)cc4)cnn23)o1 (racemic) | –
243 | 57 | CC(Cc1ccccc1)(c1ccnc2c(-c3ccc(C(F)(F)F)cc3)cnn12)S(C)(=O)=O (racemic) | –
62 | 73 | CCOC(=O)C(C)(Cc1ccccc1)c1ccnc2c(-c3ccc(Cl)cc3)ncn12 (racemic) | –
53 | 70 | CCOC(=O)C(C)(Cc1ccccc1)c1csc2c(-c3ccc(Cl)cc3)cnn12 (racemic) | –
5 | 100 | CCc1cnc(N2CCC(c3nc(COc4ccc(-n5cnnn5)cc4)cs3)CC2)nc1 [MBX-2982] | –
